Laboratory results from PubChem BioAssay AID1259407 (Chemical Carcinogenesis Research Information System (CCRIS), 2018).
Activity calls are given as the source filed them. The rule behind the calls is not given here.

Test system: CCRIS mutagenicity, Ames/micronucleus/aberration tests
Experiment: CCRIS mutagenicity studies
[1] = Test System: AMES SALMONELLA TYPHIMURIUM, Strain/Indicator: TA100, Metabolic Activation: NONE, Method: STANDARD PLATE
[2] = Test System: AMES SALMONELLA TYPHIMURIUM, Strain/Indicator: TA1535, Metabolic Activation: NONE, Method: STANDARD PLATE

Measured: mutagenic call

c1ccc2c(OCC3CO3)cccc2c1 (configuration not stated)
active: [1] active; positive | Test System: AMES SALMONELLA TYPHIMURIUM, Strain/Indicator: TA104, Metabolic Activation: NONE, Method: STANDARD PLATE active; positive | [2] active; positive | Test System: AMES SALMONELLA TYPHIMURIUM, Strain/Indicator: TA4001, Metabolic Activation: NONE, Method: STANDARD PLATE active; positive | Test System: AMES SALMONELLA TYPHIMURIUM, Strain/Indicator: TA4006, Metabolic Activation: NONE, Method: STANDARD PLATE active; positive

Cc1cccn2c1nc1ccc(N)nc12
inactive: Test System: AMES SALMONELLA TYPHIMURIUM, Strain/Indicator: TA98, Metabolic Activation: RAT LIVER, CYTOSOL, AROCLOR 1254, Method: STANDARD PLATE inactive; negative | Test System: UDS RAT HEPATOCYTES, Strain/Indicator: THY INCORP, Metabolic Activation: NONE, Method: AUTORADIOGRAPHY inactive; negative
active: Test System: AMES SALMONELLA TYPHIMURIUM, Strain/Indicator: TA98, Metabolic Activation: MOUSE, LIVER, MICROSOMES, TCDD, Method: STANDARD PLATE active; positive | Test System: AMES SALMONELLA TYPHIMURIUM, Strain/Indicator: TA98, Metabolic Activation: MOUSE, LIVER, MICROSOMES, Method: STANDARD PLATE active; positive | Test System: AMES SALMONELLA TYPHIMURIUM, Strain/Indicator: TA98, Metabolic Activation: RAT LIVER, MICROSOMES, AROCLOR 1254, Method: STANDARD PLATE active; positive | Test System: AMES SALMONELLA TYPHIMURIUM, Strain/Indicator: TA98, Metabolic Activation: RAT, LIVER, MICROSOMES, 1-METHYLCHRYSENE, Method: PREINCUBATION active; positive | Test System: AMES SALMONELLA TYPHIMURIUM, Strain/Indicator: TA98, Metabolic Activation: RAT, LIVER, MICROSOMES, 2-METHYLCHRYSENE, Method: PREINCUBATION active; positive | Test System: AMES SALMONELLA TYPHIMURIUM, Strain/Indicator: TA98, Metabolic Activation: RAT, LIVER, MICROSOMES, 3-METHYLCHRYSENE, Method: PREINCUBATION active; positive | Test System: AMES SALMONELLA TYPHIMURIUM, Strain/Indicator: TA98, Metabolic Activation: RAT, LIVER, MICROSOMES, 4-METHYLCHRYSENE, Method: PREINCUBATION active; positive | Test System: AMES SALMONELLA TYPHIMURIUM, Strain/Indicator: TA98, Metabolic Activation: RAT, LIVER, MICROSOMES, 5-METHYLCHRYSENE, Method: PREINCUBATION active; positive | Test System: AMES SALMONELLA TYPHIMURIUM, Strain/Indicator: TA98, Metabolic Activation: RAT, LIVER, MICROSOMES, 6-AMINOCHRYSENE, Method: PREINCUBATION active; positive | Test System: AMES SALMONELLA TYPHIMURIUM, Strain/Indicator: TA98, Metabolic Activation: RAT, LIVER, MICROSOMES, 6-METHYLCHRYSENE, Method: PREINCUBATION active; positive | Test System: AMES SALMONELLA TYPHIMURIUM, Strain/Indicator: TA98, Metabolic Activation: RAT, LIVER, MICROSOMES, BENZO[B]CHRYSENE, Method: PREINCUBATION active; positive | Test System: AMES SALMONELLA TYPHIMURIUM, Strain/Indicator: TA98, Metabolic Activation: RAT, LIVER, MICROSOMES, BENZO[C]CHRYSENE, Method: PREINCUBATION active; positive | Test System: AMES SALMONELLA TYPHIMURIUM, Strain/Indicator: TA98, Metabolic Activation: RAT, LIVER, S-9, AROCLOR 1254, Method: PREINCUBATION active; positive | Test System: AMES SALMONELLA TYPHIMURIUM, Strain/Indicator: TA100, Metabolic Activation: RAT, LIVER, S-9, AROCLOR 1254, Method: PREINCUBATION active; positive | Test System: AMES SALMONELLA TYPHIMURIUM, Strain/Indicator: TA1538, Metabolic Activation: RAT, LIVER, MICROSOMES, 2-ACETYLAMINOFLUORENE, Method: STANDARD PLATE active; positive | Test System: AMES SALMONELLA TYPHIMURIUM, Strain/Indicator: TA1538, Metabolic Activation: RAT, LIVER, MICROSOMES, 4-ACETYLAMINOFLUORENE, Method: STANDARD PLATE active; positive | Test System: AMES SALMONELLA TYPHIMURIUM, Strain/Indicator: TA1538, Metabolic Activation: RAT, LIVER, MICROSOMES, Method: STANDARD PLATE active; positive | Test System: AMES SALMONELLA TYPHIMURIUM, Strain/Indicator: YG1012, Metabolic Activation: RAT, LIVER, S-9, PHENOBARBITAL AND 5,6-BENZOFLAVONE, Method: PREINCUBATION active; positive | Test System: AMES SALMONELLA TYPHIMURIUM, Strain/Indicator: YG1019, Metabolic Activation: RAT LIVER S-9, AROCLOR, Method: PREINCUBATION active; positive | Test System: AMES SALMONELLA TYPHIMURIUM, Strain/Indicator: YG1019, Metabolic Activation: RAT, LIVER, S-9, PHENOBARBITAL AND 5,6-BENZOFLAVONE, Method: PREINCUBATION active; positive | Test System: AMES SALMONELLA TYPHIMURIUM, Strain/Indicator: YG1020, Metabolic Activation: RAT, LIVER, S-9, PHENOBARBITAL AND 5,6-BENZOFLAVONE, Method: PREINCUBATION active; positive | Test System: AMES SALMONELLA TYPHIMURIUM, Strain/Indicator: YG1024, Metabolic Activation: RAT, LIVER, S-9, PHENOBARBITAL AND 5,6-BENZOFLAVONE, Method: PREINCUBATION active; positive | Test System: AMES SALMONELLA TYPHIMURIUM, Strain/Indicator: YG1025, Metabolic Activation: RAT, LIVER, S-9, PHENOBARBITAL AND 5,6-BENZOFLAVONE, Method: PREINCUBATION active; positive | Test System: AMES SALMONELLA TYPHIMURIUM, Strain/Indicator: YG1029, Metabolic Activation: RAT, LIVER, S-9, PHENOBARBITAL AND 5,6-BENZOFLAVONE, Method: PREINCUBATION active; positive | Test System: UDS HUMAN HEPATOCYTES, Strain/Indicator: THY INCORP, Metabolic Activation: NONE, Method: AUTORADIOGRAPHY active; positive | Test System: UDS MOUSE HEPATOCYTES, Strain/Indicator: THY INCORP, Metabolic Activation: NONE, Method: AUTORADIOGRAPHY active; positive

C1CCCCCC2OC2CCCC1 (configuration not stated)
inactive: [1] inactive; negative | Test System: AMES SALMONELLA TYPHIMURIUM, Strain/Indicator: TA100, Metabolic Activation: RAT, LIVER, S-9, AROCLOR 1254, Method: STANDARD PLATE inactive; negative | [2] inactive; negative | Test System: AMES SALMONELLA TYPHIMURIUM, Strain/Indicator: TA1535, Metabolic Activation: RAT, LIVER, S-9, AROCLOR 1254, Method: STANDARD PLATE inactive; negative | Test System: UDS RAT HEPATOCYTES, Strain/Indicator: THY INCORP, Metabolic Activation: NONE inactive; negative

C1CN2CCN1CC2
inactive: Test System: AMES SALMONELLA TYPHIMURIUM, Strain/Indicator: TA98, Metabolic Activation: NONE, Method: PREINCUBATION inactive; negative | Test System: AMES SALMONELLA TYPHIMURIUM, Strain/Indicator: TA98, Metabolic Activation: RAT, LIVER, S-9, PCB, Method: PREINCUBATION inactive; negative | Test System: AMES SALMONELLA TYPHIMURIUM, Strain/Indicator: TA100, Metabolic Activation: NONE, Method: PREINCUBATION inactive; negative | Test System: AMES SALMONELLA TYPHIMURIUM, Strain/Indicator: TA100, Metabolic Activation: RAT, LIVER, S-9, PCB, Method: PREINCUBATION inactive; negative

[N-]=[N+]=Nc1ccc2c(Nc3ccc(C(=O)O)cc3)c3ccccc3nc2c1
active: Test System: AMES SALMONELLA TYPHIMURIUM, Strain/Indicator: TA1537, Metabolic Activation: NONE, Method: STANDARD PLATE active; positive

O=[N+]([O-])c1ccc2c(c1)nc(/C=N/OCc1ccccc1[N+](=O)[O-])n2Cc1ccc(Cl)cc1Cl
active: Test System: AMES SALMONELLA TYPHIMURIUM, Strain/Indicator: TA98, Metabolic Activation: NONE, Method: STANDARD PLATE active; positive | Test System: AMES SALMONELLA TYPHIMURIUM, Strain/Indicator: TA98, Metabolic Activation: RAT, LIVER, S-9, PHENOBARBITAL AND BETA-NAPHTHOFLAVONE, Method: STANDARD PLATE active; positive | [1] active; positive | Test System: AMES SALMONELLA TYPHIMURIUM, Strain/Indicator: TA100, Metabolic Activation: RAT, LIVER, S-9, PHENOBARBITAL AND BETA-NAPHTHOFLAVONE, Method: STANDARD PLATE active; positive
